From patent US9045490B2, “Use of parthenolide derivatives as antileukemic and cytotoxic agents” (University of Kentucky, priority 2003, dated 2015)

How the values were obtained:
[1] = test system: MDA-MB-231 breast cancer cells; assay: TRAIL induced apoptosis assay (carboxyfluorescein-FLICA, FACScan); assay type: cell-based; conditions: 2 or 5 μM pre-treatment two hours, then TRAIL 5 ng/ml or TRAIL-RII antibodies 10 ng/ml, 48 hours
Protocol: MDA-MB-231 breast cancer cells (2×10^5 cells in 60 mm plates) were treated first with 2 or 5 μM of DMAPT (LC-1). After two hours, TRAIL (TNF related-apoptosis-inducing-ligand, 5 ng/ml) or TRAIL-RII-activating antibodies (10 ng/ml) were added. After 48 hours of TRAIL or TRAIL-RII antibody treatment, cells were harvested and apoptosis was measured using carboxyfluorescein-FLICA assay. Briefly, both attached and floating cells were collected by trypsinization, incubated with carboxyfluorescein-labeled pan-caspase inhibitor FAM-VAD-FMK for 2 h at 37° C. Labeled cells were rinsed twice in PBS and resuspended in 300 μl of PBS containing 0.3 μg of propidium iodide. Apoptotic cells were identified by FACScan analysis. […] FAM-VAD-FMK stains apoptotic cells (upper left). Apoptotic cells that have lost plasma membrane integrity are stained by both FAM-VAD-FMK and propidium iodide (upper right). Necrotic cells are stained only by propidium iodide (lower right). MDA-MB-231 cells are relatively resistant to TRAIL.

[2] = test system: breast cancer cell line hbl-100; assay: Clonogenic assay; assay type: cell-based; conditions: hbl-100, 2 μm concentration (parthenolide: similar dosage ranges)
[3] = Preliminary toxicity study in mice; assay type: in vivo; conditions: oral 40 mg/kg daily, three weeks, mice gained weight and survived
Protocol: Preliminary in vivo work was conducted to determine the bioavailability and toxicity of this agent in mice.

[4] = test system: breast cancer cell line 436; assay: Clonogenic assay; assay type: cell-based; conditions: 436 cells, 2 μm concentration (parthenolide: similar dosage ranges)
[5] = test system: hormone refractory prostate cancer cell line CWR22Rv1; assay: MTS-PMS cellular proliferation assay; assay type: cell-based; conditions: at 5 μm, CWR22 MTS-PMS assay
Protocol: A 96-well U-bottomed plate (Becton Dickinson Labware, Franklin Lakes, N.J.) at a concentration of 5,000 cells per 50 microliters […] of media was incubated in 5% CO2 at 37° C. for 24 hours. Varying compound concentrations in […] of media were added to the media 24 hours later. Colorimetric readings were obtained using the MTS/PMS system and an ELISA plate reader, after 48 hours of exposure to DMAPT. The readings obtained for each concentration tested were from an average of eight wells. Each experiment was expressed as a percentage of the solvent control and completed at least three times with consistent results. The results presented are an average of three experiments. The hormone refractory prostate cancer cell line CWR22Rv1 was treated with increasing concentrations of parthenolide and DMAPT. for three hours Both parthenolide and DMAPT reduced cellular proliferation by 50% at 5 μm in the CWR22 MTS-PMS assay. Cellular proliferation was also measured in the MTS-PMS assay using four lung cancer cell lines treated with parthenolide and derivatives PIPT ((11S,11,13-dihydro,13-(piperidin-1-yl)parthenolide), 4MEPT (11S,11,13-dihydro,13-(4-methylpiperidin-1-yl)parthenolide) and MAPT (11S,11,13-dihydro,13-dimethylaminoparthenolide). Parthenolide and its derivatives inhibited cellular proliferation in a dose dependent manner between 2 and 10 μM with 70% inhibition at 10 μM in A549, 50% in H460, 40% in H-23 and 40% in H522 (FIGS. 2-5).

[6] = test system: NF-κB DNA binding; assay: Electrophoretic mobility gel shift assay (EMSA); assay type: cell-based; conditions: three hours
Protocol: Each cancer cell line in exponential growth phase was treated with solvent control or various concentrations of parthenolide derivatives dissolved in 100% ethanol for 3 hours prior to harvesting. Cells were harvested and whole cell extracts were prepared as described previously (Nakshatri et al., Mol Cell Biol, 17: 3629-3639, 1997; Sweeney et al., Clin Cancer Res, 10: 5501-5507, 2004). Extracts were incubated with a radiolabelled NFκB probe for 30 minutes at room temperature. The oligonucleotide probe binds to the NFκB DNA binding site in the promoter region of the immunoglobulin gene. Electrophoresis and autoradioragraphy were performed as described previously (Nakshatri et al., 1997) using NFκB and SP-1 probes (Promega, Madison, Wis.). The specificity of parthenolide and derivative inhibition of NFκB DNA binding was verified by the use of the SP-1 probe as a control. Identification of the NFκB subunits binding to DNA and inhibited by DMAPT were identified by gel supershift. Constitutive NF-κB DNA binding activity was determined in the lung cancer cell lines A-549, H-23, H-522, and H-460. All four non-small lung cancer cells were treated with increasing concentrations of DMAPT for three hours, and NF-κB DNA binding was measured by electrophoretic mobility shift assay (EMSA) as described. NF-κB DNA binding activity was highest in A-549 cells, followed by H-23, H-522 and H-460 cells.
Cancer cell lines HT-1376 and UMUC-3 were treated with increasing concentrations of DMAPT for three hours. Whole cell extracts were prepared as described and DNA binding by NF-κB was analyzed by EMSA with NF-κB and OCT-1 (internal control) probes.
The hormone refractory prostate cancer cell line, CWR22Rv1 was treated with increasing concentrations of DMAPT for three hours. Whole cell extracts were prepared as described and DNA binding by NF-κB was analyzed by EMSA with NF-κB and SP-1 (internal control) probes.

[7] = test system: human monocyte cell line THP-1; assay: cDNA array analysis of inflammation genes; assay type: cell-based
Protocol: Total cellular RNA was extracted from the human monocyte cell line THP-1 under three conditions 2 hours after Time 0:
1) Control was added at Time 0 […]
RNA was extracted using RNeasy Min Kit (Qiagen, USA) according to the manufacturer's instructions. The Human Drug Targets for Inflammation and Immunomodulation Q series GE array kit (HS-048-12) was obtained from SuperArray Bioscience Corporation (Frederick, Md.). The kit determines expression of 96 genes that are associated with inflammation. RNA from respective samples was used as a template to generate biotin labeled cDNA probes using GEArray Ampolabelling RT kit (SuperArray, Bioscience Corp., USA). The cDNA probes corresponding to the mRNA population were then denatured and hybridization was carried out in GEHyb solution to nylon membranes spotted with gene specific fragments. Membranes were then washed in 2×SSC, 1% SDS twice for 15 minutes each, followed by 0.1 SSC, 0.5% SDS twice for 15 minutes each. Chemiluminescence was used to visualize the expression levels of each transcript and the results were quantified with the GEArray Analyzer. The change in a given gene transcript was estimated by normalizing the signal intensities with the signal derived from PPIA and with minimum background subtraction.

[8] = DMAPT (10 micromoles) pre-treatment for 2 hours then 1 hour treatment of LPS (10 nM)

C/C1=C\CC[C@@]2(C)O[C@@H]2[C@H]2OC(=O)[C@H](CN(C)C)[C@@H]2CC1 [DMAPT, 11S,11,13-Dihydro,13-dimethylaminoparthenolide]
sensitisation to TRAIL or TRAIL-RII activating antibody-induced apoptosis [1]: became sensitive | inhibition of proliferation [2]: almost complete inhibition | toxicity on daily oral treatment [3]: no overt toxicities | inhibition of proliferation [4]: almost complete inhibition | reduction of cellular proliferation [5]: 50% | NF-κB DNA binding ([6]; CWR22Rv1, 10 μM): substantial decreases | NF-κB DNA binding ([6]; HT-1376 and UMUC-3 cell lines, increasing concentrations): decreased NF-κB DNA binding in a dose-dependent manner | NF-κB DNA binding activity ([6]; lung cancer cell lines A-549, H-23, H-522, H-460, between 2 and 10 micromolar): substantially decreased | % Change of Genes: Intercellular Adhesion Molecule 1 [7, 8]: 58% | % Change of Genes: Nitric oxide synthase 2A (inducible) [7, 8]: 48% | % Change of Genes: Tumor necrosis factor (ligand) superfamily, member 5 [7, 8]: 23% | transcription of tumor necrosis factor (TNF), relative to control ([7]; pretreatment with DMAPT, then LPS): 2 % of control
